Measured values reported in US10604554B2, “Double-acylated GLP-1 derivatives” (Novo Nordisk A/S, priority 2012, dated 2020).
pEC50: −log10 of the molar value. Where two headings read alike, the source gives them in different places. Numbered stars: 1 amine (or outer) side, 2 acyl side, 3 side chain; on linkers, the order of the positions; unused ones are H or OH. Square brackets hold non-standard residues; d marks the D form. Side chains are listed from the residue outwards. Peptide text beside a SMILES is read from it. * marks the point of attachment. Decanoyl(10-(4-HOOC-PhO)) = O=C(O)c1ccc(OCCCCCCCCCC(=O)*)cc1; γGlu = O=C(O)[C@H](CCC(=O)[*:2])N[*:1]; εLys = N[C@@H](CCCCN[*:1])C(=O)[*:2]; AEEA = NCCOCCOCC(=O)O; Aib = CC(C)(N)C(=O)O

Biological target: T1, human GLP-1 receptor (Homo sapiens, UniProt P43220)
T1 construct: expressed in transfected cells; host or cells: BHK cells, clone FCW467-12A/KZ10-1 (parent line BHKTS13), further transfected with CRE luciferase
Test: In vitro potency (AlphaScreen cAMP, membranes)
Format: biochemical
Method in brief: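 AlphaScreen competition read-out (anti-cAMP acceptor beads vs biotinylated cAMP, 3 h room temperature) quantified cAMP made by human GLP-1 receptor membranes, 6 μg/well, from stably transfected BHK467-12A cells. Buffer pH 7.4 contained 1 mM ATP, 1 μM GTP, 0.5 mM IBMX and 0.1% BSA; cAMP standard curve included.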

T1 sequence (P43220 24-463): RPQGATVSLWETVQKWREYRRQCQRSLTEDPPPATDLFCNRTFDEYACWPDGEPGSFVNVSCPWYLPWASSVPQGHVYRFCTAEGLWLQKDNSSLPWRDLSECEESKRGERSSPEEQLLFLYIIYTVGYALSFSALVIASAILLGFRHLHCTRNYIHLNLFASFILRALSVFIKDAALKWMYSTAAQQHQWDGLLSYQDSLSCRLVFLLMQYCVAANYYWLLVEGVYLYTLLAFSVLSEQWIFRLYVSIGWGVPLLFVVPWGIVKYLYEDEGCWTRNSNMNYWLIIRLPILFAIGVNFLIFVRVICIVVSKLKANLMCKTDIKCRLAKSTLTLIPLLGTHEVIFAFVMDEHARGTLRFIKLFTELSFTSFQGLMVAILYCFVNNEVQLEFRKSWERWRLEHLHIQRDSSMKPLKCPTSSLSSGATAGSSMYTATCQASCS

SMILES: CC[C@H](C)[C@H](NC(=O)[C@H](Cc1ccccc1)NC(=O)[C@H](CCC(=O)O)NC(=O)[C@H](CCCCNC(=O)[C@@H](N)CCCCNC(=O)CC[C@H](NC(=O)CC[C@H](NC(=O)CC[C@H](NC(=O)CCCCCCCCCCCOc1ccc(C(=O)O)cc1)C(=O)O)C(=O)O)C(=O)O)NC(=O)[C@H](C)NC(=O)[C@H](C)NC(=O)[C@H](CCC(N)=O)NC(=O)CNC(=O)[C@H](CCC(=O)O)NC(=O)[C@H](CC(C)C)NC(=O)[C@H](Cc1ccc(O)cc1)NC(=O)[C@H](CO)NC(=O)[C@H](CO)NC(=O)[C@@H](NC(=O)[C@H](CC(=O)O)NC(=O)[C@H](CO)NC(=O)[C@@H](NC(=O)[C@H](Cc1ccccc1)NC(=O)[C@@H](NC(=O)CNC(=O)[C@H](CCC(=O)O)NC(=O)C(C)(C)NC(=O)[C@@H](N)Cc1c[nH]cn1)[C@@H](C)O)[C@@H](C)O)C(C)C)C(=O)N[C@@H](C)C(=O)N[C@@H](Cc1c[nH]c2ccccc12)C(=O)N[C@@H](CC(C)C)C(=O)N[C@H](C(=O)N[C@@H](CCCNC(=N)N)C(=O)NCC(=O)N[C@@H](CCCNC(=N)N)C(=O)N[C@@H](CCCCNC(=O)[C@@H](N)CCCCNC(=O)CC[C@H](NC(=O)CC[C@H](NC(=O)CC[C@H](NC(=O)CCCCCCCCCCCOc1ccc(C(=O)O)cc1)C(=O)O)C(=O)O)C(=O)O)C(=O)O)C(C)C [Example 17, N^ε26-[(2S)-2-amino-6-[[(4S)-4-carboxy-4-[[(4S)-4-carboxy-4-[[(4S)-4-carboxy-4-[12-(4-carboxyphenoxy)dodecanoylamino]butanoyl]amino]butanoyl]amino]butanoyl]amino]hexanoyl], N^ε37-[(2S)-2-amino-6-[[(4S)-4-carboxy-4-[[(4S)-4-carboxy-4-[[(4S)-4-carboxy-4-[12-(4-carboxyphenoxy)dodecanoylamino]butanoyl]amino]butanoyl]amino]butanoyl]amino]hexanoyl]-[Aib^8,Arg^34,Lys^37]-GLP-1-(7-37)-peptide]
- pEC50: 9.54

SMILES: CC[C@H](C)[C@H](NC(=O)[C@H](Cc1ccccc1)NC(=O)[C@H](CCC(=O)O)NC(=O)[C@H](CCCCNC(=O)[C@@H](N)CCCCNC(=O)COCCOCCNC(=O)COCCOCCNC(=O)CC[C@H](NC(=O)CCCCCCCCCOc1ccc(C(=O)O)cc1)C(=O)O)NC(=O)[C@H](C)NC(=O)[C@H](C)NC(=O)[C@H](CCC(N)=O)NC(=O)[C@H](CCC(=O)O)NC(=O)[C@H](CCC(=O)O)NC(=O)[C@H](CC(C)C)NC(=O)[C@H](Cc1ccc(O)cc1)NC(=O)[C@H](CO)NC(=O)[C@H](CO)NC(=O)[C@@H](NC(=O)[C@H](CC(=O)O)NC(=O)[C@H](CO)NC(=O)[C@@H](NC(=O)[C@H](Cc1ccccc1)NC(=O)[C@@H](NC(=O)CNC(=O)[C@H](CCC(=O)O)NC(=O)C(C)(C)NC(=O)[C@@H](N)Cc1c[nH]cn1)[C@@H](C)O)[C@@H](C)O)C(C)C)C(=O)N[C@@H](C)C(=O)N[C@@H](Cc1c[nH]c2ccccc12)C(=O)N[C@@H](CC(C)C)C(=O)N[C@H](C(=O)N[C@@H](CCC(N)=O)C(=O)NCC(=O)N[C@@H](CCCNC(=N)N)C(=O)N[C@@H](CCCCNC(=O)[C@@H](N)CCCCNC(=O)COCCOCCNC(=O)COCCOCCNC(=O)CC[C@H](NC(=O)CCCCCCCCCOc1ccc(C(=O)O)cc1)C(=O)O)C(=O)O)C(C)C [Example 18] (H-H[Aib]EGTFTSDVSSYLEEQAAK([εLys-AEEA-AEEA-γGlu-Decanoyl(10-(4-HOOC-PhO))])EFIAWLVQGRK([εLys-AEEA-AEEA-γGlu-Decanoyl(10-(4-HOOC-PhO))])-OH; N-terminus and C-terminus assumed)
- pEC50: 10.12

SMILES: CC[C@H](C)[C@H](NC(=O)[C@H](Cc1ccccc1)NC(=O)[C@H](CCC(=O)O)NC(=O)[C@H](CCCCNC(=O)[C@@H](N)CCCCNC(=O)COCCOCCNC(=O)COCCOCCNC(=O)CC[C@H](NC(=O)CCCCCCCCCCCCC(=O)O)C(=O)O)NC(=O)[C@H](C)NC(=O)[C@H](C)NC(=O)[C@H](CCC(N)=O)NC(=O)CNC(=O)[C@H](CCC(=O)O)NC(=O)[C@H](CC(C)C)NC(=O)[C@H](Cc1ccc(O)cc1)NC(=O)[C@H](CO)NC(=O)[C@H](CO)NC(=O)[C@@H](NC(=O)[C@H](CC(=O)O)NC(=O)[C@H](CO)NC(=O)[C@@H](NC(=O)[C@H](Cc1ccccc1)NC(=O)[C@@H](NC(=O)CNC(=O)[C@H](CCC(=O)O)NC(=O)C(C)(C)NC(=O)[C@@H](N)Cc1c[nH]cn1)[C@@H](C)O)[C@@H](C)O)C(C)C)C(=O)N[C@@H](C)C(=O)N[C@@H](Cc1c[nH]c2ccccc12)C(=O)N[C@@H](CC(C)C)C(=O)N[C@H](C(=O)N[C@@H](CCCNC(=N)N)C(=O)NCC(=O)N[C@@H](CCCNC(=N)N)C(=O)N[C@@H](CCCCNC(=O)[C@@H](N)CCCCNC(=O)COCCOCCNC(=O)COCCOCCNC(=O)CC[C@H](NC(=O)CCCCCCCCCCCCC(=O)O)C(=O)O)C(=O)O)C(C)C [Example 19, N^ε26-[(2S)-2-amino-6-[[2-[2-[2-[[2-[2-[2-[[(4S)-4-carboxy-4-(13-carboxytridecanoylamino)butanoyl]amino]ethoxy]ethoxy]acetyl]amino]ethoxy]ethoxy]acetyl]amino]hexanoyl], N^ε37-[(2S)-2-amino-6-[[2-[2-[2-[[2-[2-[2-[[(4S)-4-carboxy-4-(13-carboxytridecanoylamino)butanoyl]amino]ethoxy]ethoxy]acetyl]amino]ethoxy]ethoxy]acetyl]amino]hexanoyl]-[Aib^8,Arg^34,Lys^37]-GLP-1-(7-37)-peptide]
- pEC50 (cAMP formation in membranes from BHK467-12A cells expressing human GLP-1 receptor, read-out: In vitro potency (AlphaScreen) EC50): 10.24

SMILES: CC[C@H](C)[C@H](NC(=O)[C@H](Cc1ccccc1)NC(=O)[C@H](CCC(=O)O)NC(=O)[C@H](CCCCNC(=O)[C@@H](N)CCCCNC(=O)[C@@H](N)CCCCNC(=O)CC[C@H](NC(=O)CCCCCCCCCCOc1ccc(C(=O)O)cc1)C(=O)O)NC(=O)[C@H](C)NC(=O)[C@H](C)NC(=O)[C@H](CCC(N)=O)NC(=O)CNC(=O)[C@H](CCC(=O)O)NC(=O)[C@H](CC(C)C)NC(=O)[C@H](Cc1ccc(O)cc1)NC(=O)[C@H](CO)NC(=O)[C@H](CO)NC(=O)[C@@H](NC(=O)[C@H](CC(=O)O)NC(=O)[C@H](CO)NC(=O)[C@@H](NC(=O)[C@H](Cc1ccccc1)NC(=O)[C@@H](NC(=O)CNC(=O)[C@H](CCC(=O)O)NC(=O)C(C)(C)NC(=O)[C@@H](N)Cc1c[nH]cn1)[C@@H](C)O)[C@@H](C)O)C(C)C)C(=O)N[C@@H](C)C(=O)N[C@@H](Cc1c[nH]c2ccccc12)C(=O)N[C@@H](CC(C)C)C(=O)N[C@H](C(=O)N[C@@H](CCCNC(=N)N)C(=O)NCC(=O)N[C@@H](CCCNC(=N)N)C(=O)N[C@@H](CCCCNC(=O)[C@@H](N)CCCCNC(=O)[C@@H](N)CCCCNC(=O)CC[C@H](NC(=O)CCCCCCCCCCOc1ccc(C(=O)O)cc1)C(=O)O)C(=O)O)C(C)C [Example 20, N^ε26-[(2S)-2-amino-6-[[(2S)-2-amino-6-[[(4S)-4-carboxy-4-[11-(4-carboxyphenoxy)undecanoylamino]butanoyl]amino]hexanoyl]amino]hexanoyl], N^ε37-[(2S)-2-amino-6-[[(2S)-2-amino-6-[[(4S)-4-carboxy-4-[11-(4-carboxyphenoxy)undecanoylamino]butanoyl]amino]hexanoyl]amino]hexanoyl]-[Aib^8,Arg^34,Lys^37]-GLP-1-(7-37)-peptide]
- pEC50: 10.15

SMILES: CC[C@H](C)[C@H](NC(=O)[C@H](Cc1ccccc1)NC(=O)[C@H](CCC(=O)O)NC(=O)[C@H](CCCCNC(=O)[C@@H](N)CCCCNC(=O)[C@@H](N)CCCCNC(=O)CC[C@H](NC(=O)CCCCCCCNC(=O)CCCCCCCCCOc1ccc(C(=O)O)cc1)C(=O)O)NC(=O)[C@H](C)NC(=O)[C@H](C)NC(=O)[C@H](CCC(N)=O)NC(=O)CNC(=O)[C@H](CCC(=O)O)NC(=O)[C@H](CC(C)C)NC(=O)[C@H](Cc1ccc(O)cc1)NC(=O)[C@H](CO)NC(=O)[C@H](CO)NC(=O)[C@@H](NC(=O)[C@H](CC(=O)O)NC(=O)[C@H](CO)NC(=O)[C@@H](NC(=O)[C@H](Cc1ccccc1)NC(=O)[C@@H](NC(=O)CNC(=O)[C@H](CCC(=O)O)NC(=O)C(C)(C)NC(=O)[C@@H](N)Cc1c[nH]cn1)[C@@H](C)O)[C@@H](C)O)C(C)C)C(=O)N[C@@H](C)C(=O)N[C@@H](Cc1c[nH]c2ccccc12)C(=O)N[C@@H](CC(C)C)C(=O)N[C@H](C(=O)N[C@@H](CCCNC(=N)N)C(=O)NCC(=O)N[C@@H](CCCNC(=N)N)C(=O)N[C@@H](CCCCNC(=O)[C@@H](N)CCCCNC(=O)[C@@H](N)CCCCNC(=O)CC[C@H](NC(=O)CCCCCCCNC(=O)CCCCCCCCCOc1ccc(C(=O)O)cc1)C(=O)O)C(=O)O)C(C)C [Example 26, N^ε26-[(2S)-2-amino-6-[[(2S)-2-amino-6-[[(4S)-4-carboxy-4-[8-[10-(4-carboxyphenoxy)decanoylamino]octanoylamino]butanoyl]amino]hexanoyl]amino]hexanoyl], N^ε37-[(2S)-2-amino-6-[[(2S)-2-amino-6-[[(4S)-4-carboxy-4-[8-[10-(4-carboxyphenoxy)decanoylamino]octanoylamino]butanoyl]amino]hexanoyl]amino]hexanoyl]-[Aib^8,Arg^34,Lys^37]-GLP-1-(7-37)-peptide]
- pEC50: 9.87
